One assay deals with HADC100 ESC. The experiment in a line: Flow cytometry of MSC surface markers after ESC to MSC differentiation with ALK-5 inhibitors. Set-up: key to CD90 surface marker expression level / CD105 surface marker expression level / CD34 surface marker expression level / CD45 surface marker expression level / CD73 surface marker expression level: % cells positive relative to isotype control background. Format: cell-based, human. Conditions: for triple positive for CD73, CD90 and CD105: co-expression analysis; for CD90 surface marker expression level / CD34 surface marker expression level / CD45 surface marker expression level / CD73 surface marker expression level / CD105 surface marker expression level: HADC100 ESC, SB525334 10 μM 5 days, GW788388 5 μM 5 days, ± standard deviation; for CD90 surface marker expression level: in %; for CD34 surface marker expression level / CD45 surface marker expression level / CD73 surface marker expression level / CD105 surface marker expression level: in % (unit assumed); for MSC differentiation / differentiating ES-MSC: overall statement of the discussion. How it is done:
An overview of the differentiation process is provided in FIG. 1, panel K. To create cell clusters or embryoid bodies of uniform size, ESCs were removed from CellStart culture using Accutase® for 2-5 minutes until single cells were observed. […] After 24 hours, the cell clusters were suspended at 2.5-3×10^5 cells per ml in ultra-low adherent 6 well plates (Corning) in StemPro-34 serum free medium (ThermoFisher) supplemented with 2 mM L-glutamine (ThermoFisher Scientific), 50 μg/ml Ascorbic acid (Stemcell Technologies, Vancouver, Canada) and 1.8 μl/ml ITS-G (100× Insulin-Transferrin-Selenium; ThermoFisher); termed as “complete SP-34 medium”.
The medium was changed every 2 days by removing cell clusters into 15 ml sterile tubes and permitted to gravity settle for 10 minutes at room temperature. Most of the media was removed using a pipette to leave approximately 300-500 μl of medium. Freshly made medium (with the appropriate ALK5 inhibitor or DMSO) was replaced at the same volumes and well number into new ultra-low adherent plates.
After treatment with the appropriate ALK5 inhibitor, the cell clusters were removed by gravity settling and suspended in complete SP-34 medium supplemented with bFGF 20 ng/ml (without any ALK-5 inhibitor or DMSO) and transferred onto fibronectin (FN) coated (10 μg/ml; Fibronectin from human plasma, Sigma-Aldrich, St. Louis, MO) T75 cm^2 flasks (passage zero (P0)). The emerging cells and remaining cell clusters were exposed to Accutase® for 5-10 minutes, gently triturated and counted. The cells were seeded at […] in T75 FN coated flask (P1) and medium changed every 3-4 days until 80-90% confluence. At this point, the cells were detached using Accutase® for continued culture, screened for surface marker phenotype characterization (flow cytometry), placed into 3D cultures to assess chondrogenic differentiation capacity, or preserved in liquid nitrogen.
Cells were detached using Accutase®, washed and suspended in FACS buffer at a concentration of 0.2×10^6 cells per 100 μl. A panel of CD molecules were used, each with the following fluorochromes: CD34-FITC, CD45-BV510, CD73-APC (BioLegend, San Diego, California) CD90-PE-Cy7, and CD105-BV650 (BD Biosciences, Franklin Lakes, New Jersey). Matching isotype control IgGs with the same fluorochrome conjugates were used for background gating. For compensation of spectral overlap, unstained cells, and individual tubes with each fluorochrome were incubated with Dynabeads to distinguish between positive and negative fluorochrome signals. Data was acquired with the Novocyte flow cytometer (ACEA Biosciences Inc. San Diego, CA) and analyzed using FlowJo software (version 10, FlowJo, LLC, Ashland, OR) to determine percentage positive signal for each molecule relative to isotype background non-specific signal controls.
For orientation: Flow cytometry measures light scatter and fluorescence of single cells or particles in a stream.

Assay [1] has as its system ex vivo osteoarthritic cartilage explants. Nature of the assay: Ex vivo human osteoarthritic cartilage defect repair with fibrin-ECM constructs or pellets. Format: cell-based. Conditions: implanted as hydrogel or pellets, 3 weeks, serum-free chondrogenic medium with TGFβ3 10 ng/ml. How it is done:
Monolayer cultured ES-MSC were suspended in a hydrogel wafer composed of collagen II (Innovative Research Inc. Novi, MI), hyaluronate (Supartz FX sodium hyaluronate, Seikagaku Corp. Tokyo, Japan), chondroitin sulfate (Sigma-Aldrich) and fibrin (Baxter Healthcare, Deerfield, IL) at a density of 20×10^6 cells per ml. The fibrinogen and thrombin components were prepared separately. To each fibrinogen component, 2 mg/ml sodium hyaluronate, 2 mg/ml chondroitin sulfate and 6 mg/ml collagen II was added (2× concentration of final). Cells were added to the thrombin component at a density of 40×10^6 cells per ml. Thrombin and fibrinogen components in individual syringes were attached to a Baxter DUO mixing syringe and extruded to form the coagulated constructs. The constructs were either directly implanted into ex vivo cartilage tissue or coagulated in 6 well tissue culture plates for 4 to 8 minutes before 4-6 ml of chondrogenic medium was added. To prevent shrinkage of the constructs during culture, the gels were held on AdminPatch microneedle arrays (AdminMed, Sunnyvale, CA) for the duration of their culture.
Osteochondral tissues were obtained from patients ranging between 60 to 70 years of age undergoing total knee arthroplasty within 4-6 hours of surgery (approved by Scripps Institutional Review Board) as previous described. Cartilage disks (6 mm in diameter and ~2-3 mm thick) were harvested from the osteochondral specimens using a sterile dermal punch. The cartilage tissue was cultured in medium consisting of DMEM (Mediatech Inc., Manassas, VA) supplemented with 10% calf serum (Omega Scientific Inc., Tarzana, CA) and 1% Penicillin-Streptomycin-Gentamycin (Life Technologies, Carlsbad, CA). Cartilage disks were maintained in 6-well plates (2-4 per well) in 8 ml medium for 72 hours before creation of the surgical defect. A flame-sterilized stainless-steel burr was used create defects approximately 2×2 mm wide and 0.5 to 1 mm deep. These defects were filled with pellets or hydrogel constructs trimmed to size using 2 mm dermal biopsy punches. […]

[2] abbreviates: HADC 100 ES-MSC, SB431542 10 μM 10 days, N=4.
Setting [3] is: N=4, SB431542 10 μM 10 days, listed as SB43.
Setting [4] is: N=4, SB431542 10 μM 10 days, listed as SB52.

“And” between values parts separate entries of the source, which are not always exact repeats. Equal entries are not always repeated. “Also recorded” adds a separate entry of the source.

For the compound `NC(=O)c1ccc(-c2nc(-c3ccc4c(c3)OCO4)c(-c3ccccn3)[nH]2)cc1` [SB431542], in the assay with HADC100 ESC (HADC 100 ES-MSC), the CD73 positive cells was 94±12% and 93.6±11.8%; the “triple positive for CD73, CD90 and CD105” value is 88±8%. In the assay on HADC100 ESC (setting [2]), this compound displayed a CD90 positive cells of 88±10% and a CD105 positive cells of 86±7%. In the assay on HADC100 ESC (N=4, SB431542 10 μM 10 days), the “CD90 surface marker expression level” value is recorded as 87.6±10.4, the “CD34 surface marker expression level” value was determined as 1.8 ± 0.9, the “CD45 surface marker expression level” value is 1.2 ± 0.5 and the “CD73 surface marker expression level” value is listed as 93.6 ± 11.8. The “CD105 surface marker expression level” value in the assay with HADC100 ESC (N=4, SB431542 10 μM 10 days) was 86.1±6.5. Also, in the assay on HADC100 ESC (setting [3]), the “CD90 surface marker expression level” value is recorded as 87.6 ± 10.4 and the “CD105 surface marker expression level” value is recorded as 86.1 ± 6.5. Moreover, the “MSC differentiation / differentiating ES-MSC” value in the assay with HADC100 ESC is on record as “equally effective”. In addition, the “cartilaginous neo-tissue formation in ex vivo osteoarthritic explants” value in assay [1] is “formed equally well”.

With `Cc1cccc(-c2[nH]c(C(C)(C)C)nc2-c2ccc3nccnc3c2)n1` [SB525334], the “triple positive for CD73, CD90 and CD105” value in the assay with HADC100 ESC (HADC 100 ES-MSC) came to 87±8%. Besides, in the assay with HADC100 ESC (N=4, SB431542 10 μM 10 days), the “CD90 surface marker expression level” value is 93.9±7.6, the “CD34 surface marker expression level” value is reported as 1.9 ± 0.9, the “CD45 surface marker expression level” value is listed as 1.5 ± 0.5 and the “CD73 surface marker expression level” value is recorded as 99.2 ± 1.0. For the same compound, the “CD105 surface marker expression level” value with HADC100 ESC (N=4, SB431542 10 μM 10 days) worked out at 85.4±12.2. Besides, in the assay with HADC100 ESC (setting [4]), the “CD90 surface marker expression level” value is recorded as 93.9 ± 7.6 and the “CD105 surface marker expression level” value is on record as 85.4 ± 12.2. The “MSC differentiation / differentiating ES-MSC” value in the assay with HADC100 ESC is given as “successfully induced MSC differentiation; also recorded: equally effective”. For the same compound, the “cartilaginous neo-tissue formation in ex vivo osteoarthritic explants” value in assay [1] was “formed equally well”.

Source of the values: patent US20260242738A1, “ALK5 INHIBITORS FOR EFFICIENT DERIVATION OF MESENCHYMAL STEM CELLS FROM EMBRYONIC STEM CELLS” (SCRIPPS HEALTH, priority 2022, published 2026).
